Measured values reported in patent US8969568B2, “Substituted naphthyridines and their use as medicaments” (Boehringer Ingelheim Pharma GmbH & Co. KG, priority 2010, dated 2015).
pIC50: −log10 of the molar value.

molecular target: Recombinant human Syk (amino acids 342-635), GST-Syk kinase fusion protein (Homo sapiens (Human), UniProt P43405); experiment: Syk Kinase Test (Kinase Glo luminescence); conditions: read-out: IC50-value, GST-Syk 4 nM final, ATP remaining, 60 minutes at room temperature
Description: The catalytic activity of the GST-Syk kinase fusion protein was determined using the Kinase Glo® Luminescence Kinase test (Promega; V6712). In this homogeneous test the amount of ATP remaining after the kinase reaction is quantified by a luciferin-luciferase reaction using luminescence. The luminescence signal obtained correlates with the amount of ATP still present and thus correlates inversely with the activity of the protein kinase.
GST-Syk was diluted to 6.0 nM in the test buffer and 10 μl of this dilution were used in the kinase test (final concentration of Syk=4 nM in a total volume of 15 μl).
Positive controls are the reaction mixtures that contain no test substance; negative controls (blanks) are reaction mixtures that contain no kinase.
After 60 minutes, 10 μl Kinase-Glo® solution (Promega, Cat. #V6712) (heated to room temperature) were added to each well and incubation was continued for a further 15 minutes. The plates were read in a Microplate Scintillation and Luminescence Counter (Canberra Packard GmbH).
Data Evaluation and Calculation:
The output file of the “Counter” is a text file that contains the well number and measured counts in two columns. […] Based on this values the % inherent value for the measurement of each substance concentration was calculated using an “MS-Excel—VB macro”. […] The IC50 values were calculated from the % inhibition values using “GraphPadPrism” software (Version 5) (GraphPad Software Inc.).

Compound	pIC50
COc1cc(-c2cc3ncccc3c(O[C@H](C)[C@H]3CNC(=O)C3)n2)cc(OC)c1OC [Example 35, (R)-4-[(R)-1-[7-(3,4,5-Trimethoxy-phenyl)-[1,6]naphthyridin-5-yloxy]-ethyl]-pyrrolidin-2-one]	9.70
COc1cc(-c2cc3ncccc3c(OC[C@H]3CNC(=O)C3)n2)cc(OC)c1OC1CCOCC1 [Example 44]	7.79
COc1cc(-c2cc3ncccc3c(O[C@H](C)[C@H]3CNC(=O)C3)n2)ccc1OC1CCOCC1 [Example 63]	> 10.00
